Where “and” joins values, the source holds several entries; their conditions need not be identical. Equal values may be shown once.
What was measured:
[1] = incubation concentration of 100 mM; cited from earlier work
HeLa cells = assay: Cellular delivery studies with and without GO co-incubation, HeLa; format: cell-based; conditions: 188 μM Gd(III), 24 h, replicate values
Procedure: ICP-MS Samples were prepared in 15-mL conical tubes by adding ACS reagent grade nitric acid (70%), followed by incubation at 70° C. overnight to allow for complete sample digestion. The effectiveness of this digestion protocol was previously validated for GO. After incubation, a multi-element internal standard (containing Bi, Ho, In, Li, Sc, Tb, and Y, Inorganic Ventures, Christiansburg, Va.) and milli-Q water (18.2 MΩ·cm) were added to produce a final sample of 3% (v/v) nitric acid and 5 ng/mL internal standard.
ICP-MS was performed on a computer-controlled (Plasmalab software) Thermo X series II ICP-MS (Thermo Fisher Scientific, Waltham, Mass., USA) operating in standard mode equipped with an ESI SC-2 autosampler (Omaha, Nebr., USA). Each sample was acquired using 1 survey run (10 sweeps) and 3 main (peak jumping) runs (100 sweeps). The isotopes selected for analysis were Gd with In and Ho isotopes selected as internal standards for data interpolation. Instrument performance is optimized daily through an autotune followed by verification via a performance report (passing manufacturer specifications). Instrument calibration was accomplished by preparing individual-element Gd standards (Inorganic Ventures, Christiansburg, Va., USA) using concentrations of 0.78125, 1.5625, 3.125, 6.25, 12.50, 25.00, 50.00, 100.0, and 200.0 ng/mL containing 3.0% nitric acid (v/v) and 5.0 ng/mL of multi-element internal standard.
Dulbecco's modified phosphate buffered saline (DPBS), media, and dissociation reagents were purchased from Life Technologies (Carlsbad, Calif.). CorningBrand® cell culture consumables (flasks, plates, etc.) and sera were purchased from VWR Scientific (Radnor, Pa.). HeLa cells (ATCC® CCL-2™) and KB cells (ATCC® CCL-17™) were purchased from the American Type Culture Collection (ATCC, Manassas, Va.) and cultured in phenol red-free minimum essential media (MEM) supplemented with 10% fetal bovine serum (FBS). Prior to all experiments, cells were plated and allowed to incubate for 24 hours before dosing. Cells were harvested with 0.25% TrypLE for 5 minutes at 37° C. in a 5.0% CO2 incubator. For sterilization, all Gd(III)-labeled molecules were filtered with 0.2 μm sterile filters prior to concentration determination and storage at 4° C. GO was used as prepared without further sterilization. […] Cells were grown in a humidified incubator operating at 37° C. and 5.0% CO2.
Cell counting was conducted using a Guava EasyCyte Mini Personal Cell Analyzer (EMD Millipore, Billerica, Mass.). After cell harvesting, an aliquot (50 μL) of the cell suspensions was mixed with Guava ViaCount reagent (150 μL) and allowed to stain at room temperature for at least 5 minutes. The dilution factor of 4 was determined based upon optimum machine performance (20-150 cells/μL). After vortexing for 10 sec, stained cells were counted using a Guava EasyCyte Mini Personal Cell Analyzer (PCA) using the ViaCount software module. For each sample, 1000 events were acquired. Gating of live/dead and cell/debris classifications were performed manually by the operator.
Cellular delivery studies were performed with HeLa and KB cells. HeLa and KB were plated at a cell density of approximately 25,000 and 50,000 cells per well, respectively, in a 24-well plate as counted by a hemocytometer. Stock solutions of 1-14 (1 mM), 150 nm GO (100 μg/mL), and 1500 nm GO (100 μg/mL) were prepared using sterile Milli-Q water. Prior to dosing, 80 μL ([…]) of each GO (150 nm and 1500 nm) and 80 μL (80 nmol) of each Gd(III)-labeled molecule (1-14) were mixed and allowed to adsorb for at least 15 minutes. 150 μL Gd(III)-GO solutions were added to 250 μL media to give a final concentration of 188 μM Gd and 18.8 μg/mL GO. Cells were incubated with the mixture of Gd(III)-labeled molecules and GO for […]. To harvest, cells were rinsed in-plate three times with 500 μL PBS and trypsinized using 100 μL 0.25% TrypLE. […]

[2] = Octanol-water partition coefficients; format: physicochemical; conditions: errors show SEM; Gd in each layer by ICP-MS
Procedure: Approximately 1 mg of each compound was dissolved in 1 mL of a 1:1 mixture of water/1-octanol. After shaking the sample tube vigorously for 30 s, the tube was placed on a rotator for gentle mixing over 6 h. The tube was then removed from the rotator and allowed to sit for 12 h to ensure complete separation of the aqueous and organic phases. […] Once separation was complete, 10 μL was removed from each layer to determine the concentration of Gd by ICP-MS. The partition coefficient was calculated from the following equation: log10P=log10(Co/Cw), where log10 P is the logarithm of the partition coefficient, Co is the concentration of Gd in the 1-octanol layer, and Cw is the concentration of Gd in the water layer.

[3] = +150 nm GO co-incubation, 18.8 μg/mL GO
[4] = +1500 nm GO co-incubation, 18.8 μg/mL GO
[5] = molecule alone, without GO, 24-well plate

Compound | Highest cellular labeling reported to date [1] [fmol Gd/cell] | Gd content (fmol/cell) (HeLa cells; [3]) | Gd content (fmol/cell) (HeLa cells; [4]) | Gd content (fmol/cell) (HeLa cells; [5]) | Water-Octanol LogP [2]
CC(O)CN1CCN(CC(=O)[O-])CCN(CC(=O)[O-])CCN(CC(=O)[O-])CC1.[Gd+3] (stereo not shown) [Molecule 13, [Gd(HP-DO3A)(H2O)]] | 31 |  |  |  | 
NCCCCCCCCCCCCN1CCN(CC(=O)[O-])CCN(CC(=O)[O-])CCN(CC(=O)[O-])CC1.[Gd+3] [Molecule 10] |  | 45.53 fmol/cell and 50.10 fmol/cell and 48.08 fmol/cell | 14.47 fmol/cell and 26.93 fmol/cell and 18.26 fmol/cell | 3.88 fmol/cell and 5.08 fmol/cell and 4.54 fmol/cell | −1.63 ± 0.04
O=C([O-])CN(CCN(CC(=O)[O-])CC(=O)[O-])CCN(CC(=O)[O-])CC(=O)[O-].[Gd+3] [Molecule 11] |  | 2.36 fmol/cell and 2.49 fmol/cell and 4.37 fmol/cell and 4.24 fmol/cell and 5.87 fmol/cell and 2.95 fmol/cell and 2.73 fmol/cell and 2.85 fmol/cell | 5.16 fmol/cell and 5.75 fmol/cell and 4.01 fmol/cell and 3.75 fmol/cell and 3.78 fmol/cell and 3.36 fmol/cell | 0.34 fmol/cell and 0.30 fmol/cell and 0.54 fmol/cell and 0.82 fmol/cell and 0.51 fmol/cell and 0.72 fmol/cell and 0.61 fmol/cell (2×) | −3.80 ± 0.29
O=C([O-])CN1CCN(CC(=O)[O-])CCN(CC(O)Cn2cc(CCCOP(=O)(O)O)nn2)CCN(CC(=O)[O-])CC1.[Gd+3] (stereo not shown) [Molecule 3] |  | 1.84 fmol/cell and 1.36 fmol/cell and 1.29 fmol/cell | 1.61 fmol/cell and 1.64 fmol/cell and 1.41 fmol/cell | 0.74 fmol/cell and 0.90 fmol/cell and 0.65 fmol/cell | −4.05 ± 0.17
